Source: patent US20110166112A1, “METHOD FOR STIMULATING PLATELET PRODUCTION” (Eisai, Inc., priority 2009, published 2011)

Tested on: subjects with chronic ITP who completed 28 days of study treatment
Test: Phase 2 6-month rollover study of E5501: effectiveness (durable, transient, overall platelet response, maintenance, steroid use, upward dose titration)
Assay type: in vivo, human
Method: This study was a multicenter, parallel-group, rollover study of E5501 in subjects with chronic ITP who were enrolled in and completed 28 days' of study treatment. All subjects who completed the previous study and otherwise met the eligibility criteria for this rollover protocol were enrolled.
Subjects who rolled over from the previous study were treated for an additional 6 months after completing previous study.
Initial dose: Subjects who met the efficacy response in the previous study continued to receive their previous blinded dose at entry into this study.
Dose titration was performed in an open label fashion in 10 mg increments as follows: • Nonresponders, who received initial doses of open-label E5501 10 mg in the previous study, could have their dose increased in 10 mg increments every 14 days to a maximum of 40 mg/day in the absence of platelet response.
Subjects were also permitted to reduce their dose of ITP-directed concomitant therapy (e.g., steroids). The overall goal of any dose modification was to maintain the subject's peripheral platelet count above 50,000/mm^3 and to decrease the need for ITP-directed concomitant medications (if applicable). During any dose modification of study drug or ITP-directed concomitant medications, platelet counts were collected every week. After platelet counts stabilized, platelet count collection reverted to a biweekly schedule.
Assessments: Study subjects were evaluated for safety and efficacy (including platelet count) on day 1 and then biweekly while receiving treatment.
Two primary analysis populations were used to summarize safety and effectiveness: • Safety population: all subjects who received at least 1 dose of study drug and had at least 1 post-treatment safety assessment in either the previous or this study. All safety analyses were performed using this population. • Full Analysis Set (FAS): all subjects who participated in both studies and who had at least one post-treatment effectiveness assessment in this study. All efficacy analyses were performed using this population.
Secondary Endpoints: The secondary endpoints were markers of effectiveness, including: • 1. Changes in platelet count from baselines of the previous study and of this study by study visit; and • 2. Durable platelet response, defined as subjects who had at least 3 platelet count assessments in the last 14 weeks of the 24-week treatment period, and whose platelet count was at a response level for at least 75% of the time in the last 14 weeks during the 24-week treatment period, with no rescue medication used during the 24-week treatment period. Platelet response level was defined as ≧50,000/mm^3 for subjects whose baseline platelet count was <30,000/mm^3 in the previous study or an increase in baseline platelet count of ≧20,000/mm^3 for subjects receiving steroids whose baseline platelet count in the previous study was ≧30,000/mm^3 but <50,000/mm^3; • 3. Transient platelet response, defined as achievement of a response level for any 4 consecutive weeks during the 24-week treatment period without durable platelet response in the absence of any rescue medication; • 4. Overall platelet response (durable platelet response plus transient platelet response); • 5. Maintenance of platelet response, defined as subjects who were responders in the previous study (e.g., responders on day 28 of the previous study) who achieved a durable response in this study and had no upward dose titration of E5501 during this study; • 6. Permanent discontinuation of steroid use, defined as subjects who used steroid medication within the 2-week period before their first dose of study drug in this study, and for whom concomitant steroid medication was discontinued at least 8 weeks before the end of the treatment period; • 7. Reduction of steroid use by at least 50%. […]

[1] = FAS, Baseline PC >15K/mm^3, Responders, N assessed 19
[2] = FAS, Baseline PC ≦15K/mm^3, E5501 Total, N assessed 15
[3] = FAS, Baseline PC ≦15K/mm^3, Non-Responders, N assessed 9
[4] = FAS, Baseline PC ≦15K/mm^3, Responders, N assessed 6
[5] = FAS, History of Splenectomy, E5501 Total, N assessed 17
[6] = FAS, History of Splenectomy, Non-Responders, N assessed 10
[7] = FAS, History of Splenectomy, Responders, N assessed 7
[8] = FAS, No History of Splenectomy, E5501 Total, N assessed 36
[9] = FAS, No History of Splenectomy, Non-Responders, N assessed 18
[10] = FAS, No History of Splenectomy, Responders, N assessed 18
[11] = FAS, ≧3 Lines of Prior Therapy, E5501 Total, N assessed 35
[12] = FAS, ≧3 Lines of Prior Therapy, Non-Responders, N assessed 22
[13] = FAS, ≧3 Lines of Prior Therapy, Responders, N assessed 13
[14] = SE population, E5501 Total (N=36)
[15] = SE population, Non-Responders (N=15)
[16] = SE population, Responders (N=21)

O=C(Nc1nc(-c2cc(Cl)cs2)c(N2CCN(C3CCCCC3)CC2)s1)c1cnc(N2CCC(C(=O)O)CC2)c(Cl)c1 [E5501, 1-(3-chloro-5-{[4-(4-chlorothiophen-2-yl)-5-(4-cyclohexylpiperazin-1-yl)thiazol-2-yl]carbamoyl}pyridine-2-yl)piperidine-4-carboxylic acid]
Durable Platelet Response, n (%) with response [1]: 15 (78.9) n (%)
Overall Platelet Response, n (%) with response [1]: 18 (94.7) n (%)
Durable Platelet Response, n (%) with response [2]: 4 (26.7) n (%)
Overall Platelet Response, n (%) with response [2]: 7 (46.7) n (%)
Durable Platelet Response, n (%) with response [3]: 1 (11.1) n (%)
Overall Platelet Response, n (%) with response [3]: 3 (33.3) n (%)
Durable Platelet Response, n (%) with response [4]: 3 (50.0) n (%)
Overall Platelet Response, n (%) with response [4]: 4 (66.7) n (%)
Durable Platelet Response, n (%) with response [5]: 5 (29.4) n (%)
Overall Platelet Response, n (%) with response [5]: 10 (58.8) n (%)
Durable Platelet Response, n (%) with response [6]: 1 (10.0) n (%)
Overall Platelet Response, n (%) with response [6]: 5 (50.0) n (%)
Durable Platelet Response, n (%) with response [7]: 4 (57.1) n (%)
Overall Platelet Response, n (%) with response [7]: 5 (71.4) n (%)
Durable Platelet Response, n (%) with response [8]: 23 (63.9) n (%)
Overall Platelet Response, n (%) with response [8]: 30 (83.3) n (%)
Durable Platelet Response, n (%) with response [9]: 9 (50.0) n (%)
Overall Platelet Response, n (%) with response [9]: 13 (72.2) n (%)
Durable Platelet Response, n (%) with response [10]: 14 (77.8) n (%)
Overall Platelet Response, n (%) with response [10]: 17 (94.4) n (%)
overall platelet response rate (FAS, all subjects): 75.5%
overall platelet response rate (FAS, nonresponders): 64.3%
overall platelet response rate (FAS, responders): 88.0%
Durable Platelet Response, n (%) with response [11]: 16 (45.7) n (%)
Overall Platelet Response, n (%) with response [11]: 25 (71.4) n (%)
Durable Platelet Response, n (%) with response [12]: 7 (31.8) n (%)
Overall Platelet Response, n (%) with response [12]: 14 (63.6) n (%)
Durable Platelet Response, n (%) with response [13]: 9 (69.2) n (%)
Overall Platelet Response, n (%) with response [13]: 11 (84.6) n (%)
overall platelet response rate (SE population): 94.4%
Durable Platelet Response No, % [14]: (25.0) %
Durable Platelet Response Yes, % [14]: (75.0) %
Transient Platelet Response No, % [14]: (80.6) %
Transient Platelet Response Yes, % [14]: (19.4) %
With Overall Response No, % [14]: (5.6) %
With Overall Response Yes, % [14]: (94.4) %
Durable Platelet Response No, % [15]: (40.0) %
Durable Platelet Response Yes, % [15]: (60.0) %
Transient Platelet Response No, % [15]: (73.3) %
Transient Platelet Response Yes, % [15]: (26.7) %
With Overall Response No, % [15]: (13.3) %
With Overall Response Yes, % [15]: (86.7) %
Durable Platelet Response No, % [16]: (14.3) %
Durable Platelet Response Yes, % [16]: (85.7) %
Transient Platelet Response No, % [16]: (85.7) %
Transient Platelet Response Yes, % [16]: (14.3) %
With Overall Response Yes, % [16]: (100.0) %
Durable platelet response rate (SE population, all subjects): 75%
Durable platelet response rate (SE population, non-responders): 60.0%
Durable platelet response rate (SE population, responders): 85.7%
subjects who needed an upward dose titration (all subjects (n=26/53)): 49%
subjects able to decrease their steroid dose by at least 50% (in vivo): Thirteen
improved overall response rate when subjects received a dose titration (non-responders in the previous study): 87.6%
overall response rate (non-responders on E5501 2.5 mg in previous study, open-label E5501 10 mg in current study): 70%
overall response rate (non-responders on E5501 5 mg in previous study, open-label E5501 10 mg in current study): 80%
overall response rate (non-responders on placebo in previous study, open-label E5501 10 mg in current study): 80%
subjects not responding to E5501 10 mg in the previous study who responded at 20 mg (of five subjects): Two
subjects who used concomitant steroids able to decrease their concomitant steroid use by at least 50% (regardless of responder status): 54.2%
subjects who used concomitant steroids able to permanently discontinue using steroids (regardless of responder status): 33.3%
overall response when subjects received a dose titration (responders in the previous study): 100%
overall response rate (responders receiving double-blind E5501 10 mg): 71.4%
platelet counts from baseline (FIG. 2 FAS, FIG. 3 SE population) (rollover study): markedly increased from baseline
durable platelet response estimate (sensitivity analysis based on 55 subjects, all subjects): 50.9%
durable platelet response estimate (sensitivity analysis, non-responders): 33.3%
durable platelet response estimate (sensitivity analysis, responders): 72%
